Results published in patent publication US20070270428A1, “Use of Cyclooxygenase-2 Inhibitors for the Treatment of Depressive Disorders” (priority 2003, published 2007).
Where two headings read alike, the source gives them in different places. Values belong to the molecule of their own block, whether it stands above or below them.

Columns and labels:
human COX-1 = target: T1, human COX-1 (Homo sapiens, UniProt P23219); test: Inhibition of human COX-1 in stably transfected COS cells (PGE2 release); assay type: cell-based; conditions: COS cells stably transfected with human COX-1
T1 construct: expressed in transfected cells; host or cells: COS cells (stably transfected)
Procedure: (§1) 24 Hours prior to experiment, COS cells were transferred from the 175 cm^2 flasks in which they were grown, onto 24-well cell culture plates using the following procedure. The incubation medium
(Dulbecco's modified eagles medium (DMEM) supplemented with heat-inactivated foetal calf serum (10% v/v), penicillin (100 lU/ml), streptomycin (100 μg/ml) and geneticin (600 μg/ml)) was removed from a flask of confluent cells (1 flask at confluency contains approximately 1×10^7 cells). 10 ml of phosphate buffered saline (PBS) was added to the flask to wash the cells. Having discarded the PBS, cells were then rinsed in 10 ml trypsin for 20 seconds, after which the trypsin was removed and the flask placed in an incubator (37°) for 1-2 minutes until cells became detached from the flask. The flask was then removed from the incubator and cells resuspended in 10 ml of fresh incubation medium. The contents of the flask was transferred to a 250 ml sterile container and the volume of incubation medium subsequently made up to 100 ml. […] The plates were then placed in an incubator (37° C., 95% air/5% CO2) overnight. If more than 1 flask of cells were required, the cells from the individual flasks were combined before being dispensed into the 24-well plates.
Following the overnight incubation, the incubation medium was completely removed from the 24-well cell culture plates and replaced with 250 μl fresh DMEM (37° C.). The test compounds were made up to 250× the required test concentration in DMSO and were added to the wells in a volume of 1 μl. Plates were then mixed gently by swirling and then placed in an incubator for 1 hour (37° C., 95% air/5% CO2). Following the incubation period, 10 μl of arachidonic acid (750 μM) was added to each well to give a final arachidonic acid concentration of 30 μM. Plates were then incubated for a further 15 minutes, after which the incubation medium was removed from each well of the plates and stored at −20° C., prior to determination of prostaglandin E2 (PGE2) levels using enzyme immunoassay. The inhibitory potency of the test compound was expressed as an IC50 value, which is defined as the concentration of the compound required to inhibit the PGE2 release from the cells by 50%. The selectivity ratio of inhibition of COX-1 versus COX-2 was calculated by comparing respective IC50 values.

microsomal h-COX2 = target: T2, microsomal h-COX2 (Homo sapiens, UniProt P35354); test: Microsomal assay, COX-2 (microsomal preparation from baculovirus infected SF9 cells); assay type: biochemical
T2 construct: made in house; host or cells: baculovirus infected SF9 cells (microsomal preparation)
T2 sequence (P35354 18-604): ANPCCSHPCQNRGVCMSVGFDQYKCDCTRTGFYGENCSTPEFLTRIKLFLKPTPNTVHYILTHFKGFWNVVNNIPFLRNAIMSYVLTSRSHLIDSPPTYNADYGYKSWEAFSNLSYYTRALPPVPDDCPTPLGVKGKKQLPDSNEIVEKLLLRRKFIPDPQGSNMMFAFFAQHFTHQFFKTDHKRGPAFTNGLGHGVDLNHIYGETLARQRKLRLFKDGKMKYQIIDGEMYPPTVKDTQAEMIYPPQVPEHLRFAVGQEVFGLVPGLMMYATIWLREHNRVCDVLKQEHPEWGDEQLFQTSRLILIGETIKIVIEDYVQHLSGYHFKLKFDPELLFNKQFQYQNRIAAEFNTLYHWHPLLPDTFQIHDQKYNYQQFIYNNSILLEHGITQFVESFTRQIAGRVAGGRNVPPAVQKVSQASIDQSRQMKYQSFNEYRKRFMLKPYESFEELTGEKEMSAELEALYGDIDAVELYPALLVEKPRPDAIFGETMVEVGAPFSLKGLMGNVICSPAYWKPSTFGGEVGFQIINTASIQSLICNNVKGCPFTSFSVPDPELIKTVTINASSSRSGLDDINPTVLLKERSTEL
Procedure: Inhibitory activity against microsomal h-COX2 was assessed against a microsomal preparation from baculovirus infected SF9 cells. An aliquot of microsomal preparation was thawed slowly on ice and a 1/40,000 dilution prepared from it into the assay buffer (sterile water, degassed with argon containing 100 mM HEPES (pH 7.4), 10 mM EDTA (pH7.4), 1 mM phenol, 1 mM reduced glutathione, 20 mg/ml gelatin and 0.001 mM Hematin). Once diluted the enzyme solution was then sonicated for 5 seconds (Branson sonicator, setting 4, 1 cm tip) to ensure a homogeneous suspension. […] Plates were then mixed and incubated at room temperature for 1 hour. Following the incubation period, 40 μl of 0.5 μM arachidonic acid was added to each well to give a final concentration of 0.1 μM. Plates were then mixed and incubated for exactly 10 minutes (room temperature) prior to addition of 25 μl 1M HCl (hydrochloric acid) to each well to stop the reaction. 25 μl of 1M NaOH (sodium hydroxide) was then added to each well to neutralise the solution prior to determination of PGE2 levels by enzyme immunoassay (EIA).

male Sprague-Dawley rats = test: Chronic Inescapable Shock in Rats (escape test); assay type: in vivo, rat; conditions: stressed rats
Procedure: The Chronic Inescapable Shock in Rats model, developed from the learned Helplessness paradigm, was used to investigate the acquisition of shock-induced escape deficits in rats in the absence and presence of SSRI±COX-2 inhibitors. The test was performed over a period of seven days as an adaptation of the methodology used previously by Gambarana, C., […]. & De Montis, M. G. (1995). Experiments were carried out on male Sprague-Dawley rats (Charles River, Como, Italy). Animals were kept in a controlled environment with a constant temperature of 22° C. and a 12 hour light/12 hour inverted dark cycle, with free access to food and water. The procedures used in this study for all animals were in strict accordance with the European legislation on the use and care of laboratory animals (CEE N° 86/609) and experiments were performed under red light. The experimental procedure consists of a pre-test session (exposure to an unavoidable stress of minimum intensity and duration required to induce a reliable behavioural modification) followed 24 hours later by an escape test (for the assessment of the induced behavioural modification). […]

human COX-2 = target: T3, human COX-2 (Homo sapiens, UniProt P35354); test: Inhibition of human COX-2 in stably transfected COS cells (PGE2 release); assay type: cell-based; conditions: COS cells stably transfected with human COX-2
T3 construct: expressed in transfected cells; host or cells: COS cells (stably transfected)
T3 sequence (P35354 18-604): T2 sequence (P35354 18-604)
Procedure: as §1
(Dulbecco's modified eagles medium (DMEM) supplemented with heat-inactivated foetal calf serum (10% v/v), penicillin (100 lU/ml), streptomycin (100 μg/ml) and geneticin (600 μg/ml)) was removed from a flask of confluent cells (1 flask at confluency contains approximately 1×10^7 cells). 10 ml of phosphate buffered saline (PBS) was added to the flask to wash the cells. Having discarded the PBS, cells were then rinsed in 10 ml trypsin for 20 seconds, after which the trypsin was removed and the flask placed in an incubator (37°) for 1-2 minutes until cells became detached from the flask. The flask was then removed from the incubator and cells resuspended in 10 ml of fresh incubation medium. The contents of the flask was transferred to a 250 ml sterile container and the volume of incubation medium subsequently made up to 100 ml. […] If more than 1 flask of cells were required, the cells from the individual flasks were combined before being dispensed into the 24-well plates.
Following the overnight incubation, the incubation medium was completely removed from the 24-well cell culture plates and replaced with 250 μl fresh DMEM (37° C.). […]

[1] = microsomal assay, PGE2 by EIA, read-out: COX-2: IC50

T1 sequence (P23219 24-599): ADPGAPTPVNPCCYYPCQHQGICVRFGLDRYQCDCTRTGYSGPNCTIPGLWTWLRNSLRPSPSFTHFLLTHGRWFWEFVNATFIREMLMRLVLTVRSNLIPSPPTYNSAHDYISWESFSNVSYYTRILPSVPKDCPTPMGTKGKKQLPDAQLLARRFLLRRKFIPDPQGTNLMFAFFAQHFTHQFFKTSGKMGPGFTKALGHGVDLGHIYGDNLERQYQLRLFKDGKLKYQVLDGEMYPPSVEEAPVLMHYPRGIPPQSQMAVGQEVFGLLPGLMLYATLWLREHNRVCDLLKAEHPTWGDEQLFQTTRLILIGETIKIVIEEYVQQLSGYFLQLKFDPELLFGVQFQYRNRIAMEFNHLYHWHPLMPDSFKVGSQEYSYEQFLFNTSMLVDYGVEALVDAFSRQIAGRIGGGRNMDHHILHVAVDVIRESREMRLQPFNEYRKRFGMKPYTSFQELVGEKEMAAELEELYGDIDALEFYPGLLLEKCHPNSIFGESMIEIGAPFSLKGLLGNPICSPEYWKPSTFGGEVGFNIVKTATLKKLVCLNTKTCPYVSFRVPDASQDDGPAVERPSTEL

IC50 (microsomal h-COX2; [1]): < 10 nM
SMILES: Cc1ccc(Oc2nc(-c3ccc(S(C)(=O)=O)cc3)cc(C(F)(F)F)n2)cc1 [Example 1.6]

IC50 (microsomal h-COX2; [1]): < 10 nM
SMILES: CS(=O)(=O)c1ccc(-c2cc(C(F)(F)F)nc(Oc3cncc(Cl)c3)n2)cc1 [Example 1.7]

IC50 (human COX-1): > 100 µM
SMILES: CS(=O)(=O)c1ccc(-c2c(-c3ccc(OC(F)F)cc3)nn3ncccc23)cc1 [Compound 2.5, 2-(4-Difluoromethoxy-phenyl)-3-(4-methanesulfonyl-phenyl)-pyrazolo[1,5-b]pyridazine]

The remaining lines, values behind:

SMILES: CS(=O)(=O)c1ccc(-c2c(-c3ccc(F)cc3)nn3nc(OC(F)F)ccc23)cc1 [2.1(v), 6-Difluoromethoxy-2-(4-fluoro-phenyl)-3-(4-methanesulfonyl-phenyl)-pyrazolo[1,5-b]pyridazine]
IC50 (human COX-1): > 100 µM

SMILES: CS(=O)(=O)c1ccc(-c2cc(C(F)(F)F)cc(OCc3ccccn3)n2)cc1 [Example 3.2, 2-[4-(methylsulfonyl)phenyl]-6-[(2-pyridinylmethyl)oxy]-4-(trifluoromethyl)pyridine]
IC50 (microsomal h-COX2; stated in text after the microsomal assay table, read-out: IC50 values for inhibition of COX-2): ≤ 500 nM

SMILES: Fc1ccc([C@@H]2CCNC[C@H]2COc2ccc3c(c2)OCO3)cc1 (relative stereo) [PAROXETINE, trans-(−)-3-[(1,3-benzodioxol-5-yloxy)methyl]-4-(4-fluorophenyl)piperidine]
MEAN Number of escapes (male Sprague-Dawley rats; 7 days of treatment p.o., escapes out of 30 consecutive trials on day 8): 3.8
reversal of chronic escape deficit (male Sprague-Dawley rats; after 7 days of treatment, day 8): lack of reversal of chronic inescapable shock

SMILES: CS(=O)(=O)c1ccc(-c2c(-c3cccc(F)c3)nn3nc(OC(F)F)ccc23)cc1 [2.7(viii), 6-Difluoromethoxy-2-(3-fluoro-phenyl)-3-(4-methanesulfonyl-phenyl)-pyrazolo[1,5-b]pyridazine]
IC50 (human COX-1): > 55.2 µM

SMILES: CCOc1ccc(-c2nn3ncccc3c2-c2ccc(S(C)(=O)=O)cc2)cc1 [2.3(ii), 2-(4-Ethoxy-phenyl)-3-(4-methanesulfonyl-phenyl)-pyrazolol[5-b]pyridazine]
IC50 (human COX-1): > 100 µM

SMILES: COc1ccc(-c2nn3ncccc3c2-c2ccc(S(C)(=O)=O)cc2)cc1 [2.2(ii), 3-(4-Methanesulfonyl-phenyl)-2-(4-methoxy-phenyl)-pyrazolo[1,5-b]pyridazine]
IC50 (human COX-2): < 10 nM
